From patent US20240376517A1 (THE UNIVERSITY COURT OF THE UNIVERSITY OF EDINBURCH, priority 2021, published 2024)
*1 amine or outer side, *2 acyl side, *3 side chain or, on linkers, in order; H or OH if unused. Where a SMILES comes first, the peptide text is derived from it. Where no end group is shown, it is not given here. [ ]: non-standard residue; d: D form. The star is where a group is joined. ξ: configuration not given here. BODIPY(FL) = CC1=CC(C)=[N+]2C1=Cc1ccc(CCC(=O)*)n1[B-]2(F)F; X1 = CN(C)c1ccc(/N=N/c2ccc(C(=O)*)cc2)cc1; Ethylenediamine = C(CN[*:2])N[*:1]; Ile(3ξ) = CCC(C)[C@H](N)C(=O)O; AMC = Cc1cc(=O)oc2cc(N*)ccc12

Columns and labels:
[1] = test system: recombinant hGzmB (20 nM); assay: buffer-1 (50 mM Tris, 100 mM NaCl, pH 7.4); conditions: human, 37° C., up to 2 h
[2] = molecular target: T1, hGzmB (Homo sapiens, UniProt P10144); assay: HPLC conversion/cleavage of probes by hGzmB; assay type: biochemical; conditions: for cleavage at 100 nM for 24 h: 100 nM enzyme
T1 sequence (P10144 21-247): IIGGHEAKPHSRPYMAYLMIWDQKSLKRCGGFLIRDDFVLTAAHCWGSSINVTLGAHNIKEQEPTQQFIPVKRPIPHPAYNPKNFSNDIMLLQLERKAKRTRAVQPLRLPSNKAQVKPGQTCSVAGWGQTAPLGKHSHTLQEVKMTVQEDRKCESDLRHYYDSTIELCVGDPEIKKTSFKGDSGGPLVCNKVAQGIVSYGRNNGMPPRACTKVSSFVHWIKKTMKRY
Source text: FIG. 5. HPLC traces of the probe H5 before and after reaction with hGzmB. HPLC chromatogram and mass spectrometry analysis of the probe H5 before and after reaction with increasing concentrations of hGzmB. Mcalc. (intact probe): 1246.6 [M+Na^+]; Mcalc. (cleaved probe): 747.2 [M+H^+].

[3] = test system: co-cultures of E0771 cells and IL-2-activated CD8+ T cells; assay: Drug screening, image-based phenotypic screen with H5; assay type: cell-based, mouse; conditions: drug at working concentration plus IL-2 100 U mL^−1, 3 h
Experimental: Drug screening. E0771 (750 cells/well) and freshly isolated murine CD8+ T cells (6,000 cells/well) were plated in 384-well plates as described above. […] H5 (20 μM) and Hoechst 33342 (1 μM) was added for 1 h at 37° C., washed with PBS and imaged under ImageXpress™ XLS (Molecular Devices) using KRB (10% FBS) buffer as media. Fluorescent images (4 sites/well) were acquired under a 40× objective using 405 nm (Hoechst) and 488 nm (H5) excitation wavelengths and data was analysed with MetaXpress software using the Custom Module Editor. Briefly, nuclei were used as seeds to create a pseudo-cell area and granzyme B positive puncta were detected using a top-hat filter (pixel size: 10, circle shape) followed by an average filter (3×3 pixel).

[4] = urine from 3 healthy donors, without granzyme B; conditions: human, 37° C., up to 3 hours
[5] = test system: human recombinant granzyme B (15 nM); assay: urine from 3 healthy donors with spiked granzyme B (15 nM); conditions: 37° C., up to 3 hours
[6] = test system: E0771 cells alone or in co-culture with CD8+ T cells; assay: AZD5363 follow-up: cell death and H5 staining by flow cytometry; assay type: cell-based, mouse
Experimental: FIG. 10. […] Co-cultures were stained with probe H5 (5 μM) and AF647-Annexin V (10 nM). Excitation/emission wavelengths: 488 nm/525 nm (for probe H5), 633/670 nm (for AF647-Annexin V). c) Percentages of E0771 cells that were double-stained with probe H5 and AF647-Annexin V under the experimental conditions described in a). Data presented as mean values±SEM (n=3).

[7] = molecular target: T1, hGzmB; assay: Fluorescence assays with recombinant hGzmB; assay type: biochemical
Experimental: Fluorescence assays with recombinant enzymes. Fluorescence-based assays with enzymes were performed in buffer-1 (50 mM Tris, 100 mM NaCl, pH 7.4) for GzmB, pro-GzmB, GzmA and HNE, or buffer-2 (25 mM HEPES, 0.1% CHAPS, 10 mM DTT, pH 7.5) for caspases and other enzymes. Probes (25 μM) were added to enzymes (20 nM or at the indicated concentrations) in 384-well plates and their fluorescence emission was recorded at 450 nm (for AMC) or 510 nm (for BODIPY) at 37° C. using a Synergy H1 Hybrid reader (BioTek). In experiments with Ac-IEPD-CHO (50 μM), the inhibitor was pre-incubated for 1 h with GzmB before addition of any probe.

[8] = test system: GzmB; conditions: cited from earlier work
[9] = molecular target: T2, human recombinant granzyme B (Homo sapiens, UniProt P10144); assay: Reactivity of NIR probes with granzyme B; assay type: biochemical
T2 sequence (P10144 21-247): as above
Experimental: With the probes in hand (Table 4) they were tested for their reactivity with human recombinant granzyme B to identify a lead candidate. Each probe was tested at a concentration of 25 μM against 20 nM granzyme B and fluorescence was recorded over 2 hours at 37° C. (λex: 620 nm, λem: 660 nm).

[10] = test system: hGzmB (100 nM); conditions: human, up to 24 h
[11] = molecular target: T2, human recombinant granzyme B; assay: HPLC/MS analysis of probe cleavage by granzyme B in urine; assay type: biochemical; conditions: after 1 h with granzyme B present
Experimental: (§1) Following incubation, the samples were diluted with MeOH, centrifuged and the supernatant injected into the HPLC/MS. Samples were eluted with 0.1% HCOOH in H2O (A) and 0.1% HCOOH in MBCN (B), with a gradient of 0 to 100% B over 5 minutes and an additional isocratic period of 3 minutes with a flow rate of 1.5 mL min^−1. Reactions were monitored from 220-700 nm and percentage cleaved was determined by comparing peak area of the cleaved probe against the intact probe on MassLynx software.

[12] = assay type: in vitro ADME, human
Experimental: as §1, with “Probe (H5 or R7) (25 μM) was incubated with human recombinant granzyme B (15 nM) in Granzyme B buffer for 1.5 h at 37° C. Following” for “Following”
We first sought to address the stability of probe H5 and R7 and in urine from 3 healthy donors to ensure no cross-reactivity occurred with any other biomolecules that may be present in all urine samples. To do this we monitored the fluorescence response of probe H5 and R7 in urine with and without spiked granzyme B (15 nM) and also assessed stability via HPLC analysis. […] (FIG. 11). It should also be noted that HPLC-MS confirmed the cleavage of probe H5 and R7 after the aspartic acid residue (the natural granzyme B cleavage site).

[13] = test system: mKate-E0771 cancer cells; assay type: cell-based, mouse
Experimental: FIG. 8. […] Cell viability was determined using a commercially available MTT kit (Invitrogen) with values normalized to untreated cells. Data presented as mean values±SEM (2 independent experiments with 3 replicates for each).

## IEFDAL
[1]
  cleaved bond: Asp-Ala

## CC[C@H](C)[C@H](NC(=O)CCC1=[N+]2C(=Cc3c(C)cc(C)n3[B-]2(F)F)C=C1)C(=O)N[C@@H](CCC(=O)O)C(=O)N1CCC[C@H]1C(=O)N[C@@H](CC(=O)O)C(=O)NCCNC(=O)c1ccc(/N=N/c2ccc(N(C)C)cc2)cc1 [T1] ({BODIPY(FL)}-IEPD-{Ethylenediamine-X1})
[2]
  cleavage at 20 nM enzyme for 2 h: < 5%
  cleavage at 100 nM for 24 h: 15%

## IEPDWL
[1]
  cleaved bond: Asp-Trp

## CC(=O)N[C@@H](CSC(=O)[C@]1([C@@H](O)C(C)C)NC(=O)[C@H](C)[C@@H]1O)C(=O)O [C30, Lactacystin]
[3]
  H5 fluorescence signal compared to IL-2 only controls: Increased fluorescence signals

## IEPDWR
[1]
  cleaved bond: Asp-Trp

## Ile-Glu-Pro-Asp-Ala-Leu [R7]
[4]
  not cleaved: less than 1% of both probes had been cleaved whilst in the urine sample alone
[1]
  cleaved bond: aspartic acid-Ala
[5]
  cleaved bond: aspartic acid-Ala

## AZD5363 [C5]
[3]
  H5 fluorescence signal compared to IL-2 only controls: Increased fluorescence signals
[3]; listed as AZD5363
  H5 fluorescence signal compared to IL-2 only controls: brightest H5 fluorescence staining
[6]; AZD5363 on its own, E0771 cells
  cancer cell death and H5 staining: did not induce significant cancer cell death nor cause H5 staining
[6]; combination with 100 U mL^−1 IL-2, CD8+ T cell-E0771 co-cultures
  cancer cell death and H5 fluorescence emission: caused significant cancer cell death and H5 fluorescence emission

## IEPD-Dabcyl ({BODIPY(FL)}-IEPD-{Ethylenediamine-X1}; SMILES CC[C@H](C)[C@H](NC(=O)CCC1=[N+]2C(=Cc3c(C)cc(C)n3[B-]2(F)F)C=C1)C(=O)N[C@@H](CCC(=O)O)C(=O)N1CCC[C@H]1C(=O)N[C@@H](CC(=O)O)C(=O)NCCNC(=O)c1ccc(/N=N/c2ccc(N(C)C)cc2)cc1)
[1]
  not cleaved: <5% cleavage at 20 nM enzyme for 2 h

## IEPDRL
[1]
  cleaved bond: Asp-Arg

## IEPDAG
[1]
  cleaved bond: Asp-Ala

## Ac-IEPD-{AMC} [listing 1 of 2 here]
[7]; limit of detection of hGzmB
  LoD: 25 nM
[2]
  cleavage at 20 nM enzyme for 2 h: < 1%
  cleavage at 100 nM for 24 h: 10%
[8]
  Km: 160 µM
  kcat: 0.5 s⁻¹

## C#CC[C@H](c1nc2cc(Cl)ccc2c(=O)n1Nc1ccccc1)N(CCCN)C(=O)c1cccc(Cl)c1F [C12, ARQ621]
[3]
  H5 fluorescence signal compared to IL-2 only controls: Increased fluorescence signals

## Ac-IEPD-aldehyde
[7]; Ac-IEPD-CHO 50 μM pre-incubated 1 h with GzmB
  effect of inhibitor on fluorescence response of H5 to hGzmB: drastically reduced the fluorescence response of H5
[9]; granzyme B pre-incubated with inhibitor
  effect of inhibitor pre-incubation on fold change of R7: fold change decreased

## {BODIPY(FL)}-[Ile(3ξ)]EPDAL-{Ethylenediamine-X1} (SMILES CCC(C)[C@H](NC(=O)CCC1=[N+]2C(=Cc3c(C)cc(C)n3[B-]2(F)F)C=C1)C(=O)N[C@@H](CCC(=O)O)C(=O)N1CCC[C@H]1C(=O)N[C@@H](CC(=O)O)C(=O)N[C@@H](C)C(=O)N[C@@H](CC(C)C)C(=O)NCCNC(=O)c1ccc(/N=N/c2ccc(N(C)C)cc2)cc1) [H5]
[4]
  not cleaved: less than 1% of both probes had been cleaved whilst in the urine sample alone
[1]
  cleaved bond: Asp-Ala
[5]
  cleaved bond: aspartic acid-Ala

## CC(=O)O[C@@]12CO[C@@H]1C[C@H](O)[C@@]1(C)C(=O)[C@H](O)C3=C(C)[C@@H](OC(=O)[C@H](O)[C@@H](NC(=O)OC(C)(C)C)c4ccccc4)C[C@@](O)([C@@H](OC(=O)c4ccccc4)[C@H]21)C3(C)C [C11, Docetaxel]
[3]
  H5 fluorescence signal compared to IL-2 only controls: Increased fluorescence signals

## H5m (IEFDAL; also: FRET labels, positions not given here)
[2]
  HPLC conversion (20 nM hGzmB, 2 h): 70%

## IEPDSG
[1]
  cleaved bond: Asp-Ser

## Ac-IEPD-{AMC} [listing 2 of 2 here]
[10]
  cleaved bond: D-AMC
[1]
  not cleaved: <1% cleavage at 20 nM enzyme for 2 h

## IEPDSL
[1]
  cleaved bond: Asp-Ser

## C/C(=C\c1csc(C)n1)[C@@H]1C[C@@H]2O[C@]2(C)CCC[C@H](C)[C@H](O)[C@@H](C)C(=O)C(C)(C)[C@@H](O)CC(=O)O1 [C13, Epothilone B]
[3]
  H5 fluorescence signal compared to IL-2 only controls: Increased fluorescence signals

## CCC(C)[C@H](NC(=O)CCCCCN1/C(=C/C=C/C=C/C2=[N+](C)c3ccc(S(=O)(=O)[O-])cc3C2(C)C)C(C)(C)c2cc(S(=O)(=O)[O-])ccc21)C(=O)N[C@@H](CCC(=O)O)C(=O)N1CCC[C@H]1C(=O)N[C@@H](CC(=O)O)C(=O)N[C@@H](C)C(=O)N[C@@H](CC(C)C)C(=O)NCCOCCOCCOCCOCCNC(=O)C1CCN(S(=O)(=O)c2ccccc2-c2c3ccc(=[N+]4CCc5ccccc54)cc-3oc3cc(N4CCc5ccccc54)ccc23)CC1 (stereo partly drawn) [R7]
[9]; within 2 hours
  conversion from intact to cleaved (HPLC-MS): 100%
[11]
  conversion to the cleaved probe in urine: ≤ 99%
[12]
  probe cleaved in the urine sample alone (HPLC): less than 1%

## CCC(C)[C@H](NC(=O)CCC1=[N+]2C(=Cc3c(C)cc(C)n3[B-]2(F)F)C=C1)C(=O)N[C@@H](CCC(=O)O)C(=O)N1CCC[C@H]1C(=O)N[C@@H](CC(=O)O)C(=O)N[C@@H](C)C(=O)N[C@@H](CC(C)C)C(=O)NCCNC(=O)c1ccc(/N=N/c2ccc(N(C)C)cc2)cc1 (stereo partly drawn) [H5] ({BODIPY(FL)}-[Ile(3ξ)]EPDAL-{Ethylenediamine-X1})
[2]
  HPLC conversion (20 nM hGzmB, 2 h): 100%
[13]
  cytotoxicity (cell viability): not cytotoxic
[11]
  conversion to the cleaved probe in urine: up to 84%
[12]
  probe cleaved in the urine sample alone (HPLC): less than 1%

## CO[C@@]12[C@H](COC(N)=O)C3=C(C(=O)C(C)=C(N)C3=O)N1C[C@@H]1N[C@@H]12 [C18, Mitomycin C]
[3]
  H5 fluorescence signal compared to IL-2 only controls: Increased fluorescence signals
